Results: patent publication US20260284074A1, “ENT1 Inhibitors in Combination with Checkpoint Inhibitors” (iTeos Belgium SA, priority 2023, published 2026)

Legend:
[1] = Dynamic vapor sorption (DVS); type: physicochemical
Procedure: (§1) METHOD A: In Example 5, approximately 5-15 mg of sample was placed into a mesh vapor sorption balance pan and loaded into either a DVS Intrinsic or DVS Advantage dynamic vapor sorption balance by Surface Measurement Systems. The sample was subjected to a ramping profile from 40-90% relative humidity (RH) at 10% increments, maintaining the sample at each step until a stable weight had been achieved (dm/dt 0.004%, minimum step length 30 minutes, maximum step length 500 minutes) at 25° C. After completion of the sorption cycle, the sample was dried using the same procedure to 0% RH and then a second sorption cycle back to 40% RH was carried out. Two cycles were performed. The weight change during the sorption/desorption cycles were plotted, allowing the hygroscopic nature of the sample to be determined. XRPD analysis was then carried out on the residual solid.
as §1, with “B:” for “A:”, “1,” for “5,”, “10-20” for “5-15”, “determined.” for “determined. XRPD analysis was then carried out on the residual solid.”

MDA-MB-231 cells = assay: MDA-MB-231 subcutaneous tumor model in humanized NCG mice; type: in vivo, mouse; conditions: day 51; Compound 1 30 mg/kg i.p. twice a day; nivolumab 10 mg/kg i.p. every 5 days
Procedure: The anti-tumor therapeutic efficacy of Compound 1 monotherapy, nivolumab monotherapy, and Compound 1-nivolumab combination therapy was assessed in ‘humanized’ mice with subcutaneous tumors resulting from the subcutaneous injection of MDA-MB-231 cells, a human triple-negative breast cancer cell line.
Human cell line xenograft experiments were performed at Transcure (France) and all associated animal procedures were reviewed and approved by the local ethics committee. The experiment was carried out with the NOD-Prkdc^em26cd52Il2rg^em26cd22/NjuCrl immunodeficient mouse strain (NCG from Charles River Laboratories, Wilmington, MA, USA). Four-week-old immunodeficient NCG mice were engrafted with cord-blood-derived human CD34^+ hematopoietic stem and progenitor cells (French Blood Institute, Paris, France) 2 days after chemical myeloablative treatment. Fourteen weeks after cell injection, engraftment level was monitored with the analysis of human CD45^+ cells among total blood leukocytes by flow cytometry (Attune, Life Technologies/Thermo Fisher Scientific, Waltham, MA, USA). […]
All the animals used were monitored daily, checking their clinical signs of distress and body weight and tumors were measured three times a week using an electronic caliper. The tumor volume was determined by applying the formula Length×(Width)^2×0.5. […]

human T cells [2] = assay: [3H]adenosine uptake in activated human T cells; type: cell-based
Excerpt: Applicant observed that activated human T cells took up [3H]adenosine, and this uptake was reduced in the presence of the selective ENT1 inhibitor dilazep, confirming that ENT1 is the dominant transporter involved in adenosine uptake in T cells.
Human T cells were activated for 2 days in the presence of Compound 1 or dilazep. The cells were then washed and used in a [^3H]adenosine uptake experiment. […] (See FIG. 27A.)

human T cells [3] = assay: T cell proliferation by CFSE dilution in the presence of ATP; type: cell-based; conditions: human T cells activated in presence of 100 μM ATP, CFSE dilution, read-out: IC50, restoration of T cell proliferation
Procedure: Human T cells were activated in the presence of 100 μM ATP and dilazep or Compound 1 and proliferation was monitored by CarboxyFluoroscein Succinimidyl Ester (CFSE) dilution. […] (See FIG. 27B.)

With `COc1cc(C(=O)O[C@@H]2CCCOc3cc(cc(OC)c3OC)C(=O)NCCCN3CCCN(CC2)CC3)cc(OC)c1OC` (single isomer, unassigned) the “Moisture uptake (DVS)” value ([1]; RH raised to 80% from 10%, 25° C.) was 1.7% and the “Moisture uptake (DVS)” value ([1]; between 0 and 10% RH, 25° C.) was “about 6.3%”.

In the case of `COc1cc(C(=O)O[C@@H]2CCCOc3cc(cc(OC)c3OC)C(=O)NCCCN3CCCN(CC2)CC3)cc(OC)c1OC`, the “Water uptake (DVS)” value ([1]; at 80% RH, second sorption cycle, after likely formation of amorphous material) is reported as 3.3%, the “Water uptake (DVS)” value ([1]; between 40-80% RH, first sorption cycle) is reported as 0.9% and the “Hygroscopicity (DVS)” value ([1]; first sorption cycle, 25° C.) is reported as “slightly hygroscopic”. For the same molecule, the “Water uptake (DVS)” value ([1]; further uptake between 80-90% RH, first sorption cycle) was 3.8%.

In the case of “nivolumab [anti-PD-1, reference compound]”, the “Tumor volume compared with vehicle group” value (MDA-MB-231 cells) is reported as “not statistically significantly different”.

For `COc1cc(C(=O)OCCCN2CCCN(CCCOC(=O)c3cc(OC)c(OC)c(OC)c3)CC2)cc(OC)c1OC` [dilazep], the IC50 (human T cells [2]; Homo sapiens, T-cell, T cells activated 2 days in presence of compound, washed, [3H]adenosine uptake, read-out: IC50, inhibition of uptake of adenosine into human T cells) was 1.2 nM, the “[3H]adenosine uptake by activated human T cells” value (human T cells [2]; in the presence of the inhibitor) was “reduced” and the IC50 (human T cells [3]) was 2.4 nM.
